In BindingDB's records for patent US20250313563 (The Broad Institute, 2025):
Several values for one entry are separate records, joined by “and”; a condition that tells them apart may be missing. Equal entries are not always repeated.

Experiments:
[1] = target: Glycogen synthase kinase-3 beta (Homo sapiens, UniProt P49841); experiment: TR-FRET Assay
Description: (§1) The assay was performed in a white, 384 well, low volume, flat bottom plate (Grenier). […] The kinase activity was quenched with 2 μL of 250 mM EDTA. A 10 μL volume of 40 nM Strepavidin-d2, 2 nM Tb2+-pSer641 antibody in TR-FRET Detection Buffer (Invitrogen) was then added.

[2] = target: Glycogen synthase kinase-3 alpha (Homo sapiens, UniProt P49840); experiment: TR-FRET Assay
Description: as §1

Glycogen synthase kinase-3 beta, sequence (P49841 whole entry): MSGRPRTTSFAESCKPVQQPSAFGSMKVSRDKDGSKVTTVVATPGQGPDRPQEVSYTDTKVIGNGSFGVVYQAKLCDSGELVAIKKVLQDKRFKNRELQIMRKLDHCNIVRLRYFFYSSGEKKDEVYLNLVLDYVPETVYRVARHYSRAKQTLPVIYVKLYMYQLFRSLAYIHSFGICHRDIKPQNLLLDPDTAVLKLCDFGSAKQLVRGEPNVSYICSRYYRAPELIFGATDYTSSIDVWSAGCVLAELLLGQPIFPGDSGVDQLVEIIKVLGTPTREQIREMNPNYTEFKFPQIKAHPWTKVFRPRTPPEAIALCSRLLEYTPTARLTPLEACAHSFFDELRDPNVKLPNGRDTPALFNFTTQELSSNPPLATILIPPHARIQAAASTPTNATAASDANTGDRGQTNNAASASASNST
Glycogen synthase kinase-3 alpha, sequence (P49840 whole entry): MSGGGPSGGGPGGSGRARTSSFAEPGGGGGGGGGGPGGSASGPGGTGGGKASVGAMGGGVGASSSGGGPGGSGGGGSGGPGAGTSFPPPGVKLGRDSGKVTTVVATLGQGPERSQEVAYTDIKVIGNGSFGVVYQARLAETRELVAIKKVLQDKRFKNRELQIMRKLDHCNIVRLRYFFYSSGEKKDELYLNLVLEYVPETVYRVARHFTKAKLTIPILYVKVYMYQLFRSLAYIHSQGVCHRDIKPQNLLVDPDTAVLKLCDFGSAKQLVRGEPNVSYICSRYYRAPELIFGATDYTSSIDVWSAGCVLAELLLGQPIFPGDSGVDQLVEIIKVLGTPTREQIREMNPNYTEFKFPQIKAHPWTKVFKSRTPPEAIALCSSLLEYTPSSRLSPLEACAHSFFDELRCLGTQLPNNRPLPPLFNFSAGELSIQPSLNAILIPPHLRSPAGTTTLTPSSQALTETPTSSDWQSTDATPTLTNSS

| IC50 [1] | IC50 [2] | SMILES |
| --- | --- | --- |
| < 100 nM | < 100 nM | CC1(C)CC(=O)C2=C(C1)NC1=C(CN=N1)[C@]21CCN(S(C)(=O)=O)C1 [US20250313563, Compound 942432] |
| > 5000 nM | 1000 to 5000 nM | CC[C@]1(c2cccc(-c3cn(C)nc3C)c2)C2=C(CC(C)(C)NC2=O)NC2N=NC(C(F)(F)F)=C21 (stereo partly specified) [US20250313563, Compound 948309] |
| < 100 nM | < 100 nM | Cc1ncc(S(=O)(=O)N2CCC3(CC2)C2=C(N=NC2)NC2=C3C(=O)CC(C)(C)C2)s1 [US20250313563, Compound 947899] |
| 100 to 1000 nM | 100 to 1000 nM | CCC1(c2cccc(-c3ccccc3)c2)C2=CN=NC2NC2=C1C(=O)CC(C)(C)C2 (stereo unspecified) [US20250313563, Compound 789514] |
| < 100 nM | < 100 nM | CC1(C)CC(=O)C2=C(C1)NC1N=NC=C1C21CCCN(S(=O)(=O)c2ccccc2)CC1 (stereo unspecified) [US20250313563, Compound 889578] |
| 1000 to 5000 nM | 100 to 1000 nM | CCCn1nccc1-c1cccc([C@@]2(CC)C3=CN=NC3NC3=C2C(=O)CC(C)(C)C3)c1 (stereo partly specified) [US20250313563, Compound 946094] |
| > 1670 nM | 1000 to 5000 nM | CC1(C)CC(=O)C2=C(C1)NC1=C(CN=N1)C2(C)C [US20250313563, Compound 786065] |
| > 5000 nM | 1000 to 5000 nM | CC[C@]1(c2cccc(C)c2)C2=C(CC(C)(C)CC2=O)NC2N=NC(C(F)(F)F)=C21 (stereo partly specified) [US20250313563, Compound 883872] |
| < 100 nM | < 100 nM | CCC1(c2cccc(S(=O)(=O)C3CC3)c2)C2=C(CC(C)(C)NC2=O)NC2N=NC(C)=C21 (stereo unspecified) [US20250313563, Compound 947562] |
| > 5000 nM | > 5000 nM | CC[C@@]1(c2ccc(C)cc2)C2=CN=NC2NC2=C1C(=O)CC(C)(C)C2 (stereo partly specified) [US20250313563, Compound 789458] |
| < 100 nM | < 100 nM | CC(=O)N1C[C@@]2(C[C@]3(CO2)C2=C(N=NC2)NC2=C3C(=O)CC(C)(C)C2)[C@@H]1C [US20250313563, Compound 948440] |
| < 100 nM and 1000 to 5000 nM | < 100 nM and 100 to 1000 nM | CC[C@@]1(c2cccc(-c3ccnc(C)c3OC)c2)C2=CN=NC2NC2=C1C(=O)CC(C)(C)C2 (stereo partly specified) [US20250313563, Compound 945997] |
| > 5000 nM | 1000 to 5000 nM | CC[C@]1(c2cccc(-c3cn(C)nc3C)c2)C2=C(CC(C)(C)NC2=O)NC2N=NC(Cl)=C21 (stereo partly specified) [US20250313563, Compound 949329] |
| < 100 nM | < 100 nM | CCN(C(C)=O)c1cccc(C2(CC)C3=CN=NC3NC3=C2C(=O)CC(C)(C)C3)c1 (stereo unspecified) [US20250313563, Compound 884109] |
| > 5000 nM | > 5000 nM | CC[C@]1(c2cccc(C3=CN(C)NC3C)c2)C2=C(N=NC2)NC2=C1C(=O)C(C)(C)C2 (stereo partly specified) [US20250313563, Compound 951710] |
| > 5000 nM | 1000 to 5000 nM | CC[C@@]1(c2cccc(C(F)(F)F)c2)C2=C(N=NC2)NC2=C1C(=O)N(Cc1ccccc1)[C@@H]2C [US20250313563, Compound 930332] |
| 100 to 1000 nM | < 100 nM | CCC1(c2cccc(-c3ccnc(C)c3)c2)C2=CN=NC2NC2=C1C(=O)N(C)C(C)(C)C2 (stereo unspecified) [US20250313563, Compound 948302] |
| 1000 to 5000 nM | 100 to 1000 nM | CC[C@]1(c2cccc(C(F)(F)F)c2)C2=CN=NC2NC2=C1C(=O)N(Cc1ccccc1)CC2 (stereo partly specified) [US20250313563, Compound 912005] |
| > 5000 nM | 1000 to 5000 nM | CC[C@@]1(c2ccccc2)C2=CN=NC2NC2=C1C(=O)C[C@]1(CCN(C)C1=O)C2 (stereo partly specified) [US20250313563, Compound 949753] |

| IC50 [1] | IC50 [2] | SMILES |
| --- | --- | --- |
| 100 to 1000 nM | 100 to 1000 nM | CC1(C)CC(=O)C2=C(C1)NC1=C(CN=N1)[C@]21CC[C@@H](C(F)(F)F)C1 [US20250313563, Compound 952437] |
| 100 to 1000 nM | 100 to 1000 nM | CC1(C)CC(=O)C2=C(C1)NC1=C(CN=N1)C21CN(S(=O)(=O)c2ccccc2F)C1 [US20250313563, Compound 913263] |
| 100 to 1000 nM | 100 to 1000 nM | CCC1(c2cccc(CS(C)(=O)=O)c2)C2=CN=NC2NC2=C1C(=O)CC(C)(C)C2 (stereo unspecified) [US20250313563, Compound 945601] |
| 100 to 1000 nM | < 100 nM | COc1ccc(S(=O)(=O)N2CCC3(CC2)C2=C(N=NC2)NC2=C3C(=O)CC(C)(C)C2)c(C)c1C [US20250313563, Compound 945662] |
| 100 to 1000 nM | < 100 nM | CC[C@@]1(c2cccc(-c3cnn(C)c3F)c2)C2=CN=NC2NC2=C1C(=O)NC(C)(C)C2 (stereo partly specified) [US20250313563, Compound 950562] |
| < 100 nM | < 100 nM | CCC1(c2cccc(N(c3cccnc3)C3CC3)c2)C2=CN=NC2NC2=C1C(=O)CC(C)(C)C2 (stereo unspecified) [US20250313563, Compound 913274] |
| < 100 nM and 1000 to 5000 nM | < 100 nM and 100 to 1000 nM | CC[C@@]1(c2cccc(-c3ccnc4c3CCC4)c2)C2=C(CC(C)(C)NC2=O)NC2N=NC(C(F)(F)F)=C21 (stereo partly specified) [US20250313563, Compound 948778] |
| < 100 nM and 100 to 1000 nM | < 100 nM | CC1(C)CC(=O)C2=C(C1)NC1=C(CN=N1)C21CCN(S(=O)(=O)c2cccc(C(F)F)c2)CC1 [US20250313563, Compound 947264] |
| 1000 to 5000 nM | < 100 nM | CCC1(c2cccc(-c3ccnc(C)c3)c2)C2=CN=NC2NC2=C1C(=O)NC(C)(C)C2 (stereo unspecified) [US20250313563, Compound 914930] |
| 100 to 1000 nM | < 100 nM | CC[C@]1(c2cccc(C(F)(F)F)c2)C2=C(N=NC2)NC2=C1C(=O)C(C)(C)C2 [US20250313563, Compound 950272] |
| > 5000 nM | > 5000 nM | CC[C@]1(c2cccc(-c3cnn(CCN4CCCC4)c3)c2)C2=CN=NC2NC2=C1C(=O)NC(C)(C)C2 (stereo partly specified) [US20250313563, Compound 949510] |
| < 100 nM and 1000 to 5000 nM | < 100 nM and 100 to 1000 nM | CC[C@]1(c2cccc(-c3ccncc3C(F)(F)F)c2)C2=C(N=NC2)NC2=C1C(=O)C(C)(C)C2 [US20250313563, Compound 952759] |
| > 5000 nM | 1000 to 5000 nM | CC[C@@]1(c2cccc(-c3cc(C)ncc3C)c2)C2=CN=NC2NC2=C1C(=O)CC(C)(C)C2 (stereo partly specified) [US20250313563, Compound 943515] |
| 100 to 1000 nM | < 100 nM | CC1N=NC2=C1C1(CN(S(=O)(=O)CC3CC3)C1)C1=C(CC(C)(C)CC1=O)N2 (stereo unspecified) [US20250313563, Compound 107828] |
| 100 to 1000 nM and > 5000 nM | < 100 nM and 100 to 1000 nM | CC[C@@]1(c2cccc(-c3ccnc(C)c3)c2)C2=CN=NC2NC2=C1C(=O)N[C@@]1(CCOC1)C2 (stereo partly specified) [US20250313563, Compound 947406] |
| < 100 nM and 100 to 1000 nM | < 100 nM | CCC1(c2cccc(-c3ccncc3F)c2)C2=C(CC(C)(C)CC2=O)NC2N=NC(C(F)(F)F)=C21 (stereo unspecified) [US20250313563, Compound 945528] |
| 100 to 1000 nM | < 100 nM | CC[C@]1(c2cccc(C(F)(F)F)c2)C2=CN=NC2NC2=C1C(=O)N(c1ccsc1)CC2 (stereo partly specified) [US20250313563, Compound 952630] |
| 100 to 1000 nM | < 100 nM | CC[C@]1(c2cccc(N(C)c3ncccn3)c2)C2=C(CC(C)(C)NC2=O)NC2N=NC(C(F)F)=C21 (stereo partly specified) [US20250313563, Compound 951736] |
| > 5000 nM | > 5000 nM | CC[C@@]1(c2cccc(C(F)(F)F)c2)C2=CN=NC2NC2=C1C(=O)N(C)C[C@H]2C (stereo partly specified) [US20250313563, Compound 883982] |
